Laboratory results from patent publication US12522601B2, “1,3,4-oxadiazole derivative compounds as histone deacetylase 6 inhibitor, and the pharmaceutical composition comprising the same” (CHONG KUN DANG PHARMACEUTICAL CORP., priority 2020, dated 2026).

Tests used:
human recombinant HDAC6 = biological target: T1, human recombinant HDAC6 (Homo sapiens, UniProt Q9UBN7); assay: In vitro HDAC enzyme activity inhibition assay, HDAC6 (HDAC Fluorimetric Drug Discovery Kit); type: biochemical; conditions: for HDAC6 Selectivity (fold): HDAC6 versus HDAC1; for IC50: human recombinant HDAC6, same protocol as the HDAC1 test
T1 construct: purchased Calbiochem Inc. 382180
T1 sequence (Q9UBN7 1-1215): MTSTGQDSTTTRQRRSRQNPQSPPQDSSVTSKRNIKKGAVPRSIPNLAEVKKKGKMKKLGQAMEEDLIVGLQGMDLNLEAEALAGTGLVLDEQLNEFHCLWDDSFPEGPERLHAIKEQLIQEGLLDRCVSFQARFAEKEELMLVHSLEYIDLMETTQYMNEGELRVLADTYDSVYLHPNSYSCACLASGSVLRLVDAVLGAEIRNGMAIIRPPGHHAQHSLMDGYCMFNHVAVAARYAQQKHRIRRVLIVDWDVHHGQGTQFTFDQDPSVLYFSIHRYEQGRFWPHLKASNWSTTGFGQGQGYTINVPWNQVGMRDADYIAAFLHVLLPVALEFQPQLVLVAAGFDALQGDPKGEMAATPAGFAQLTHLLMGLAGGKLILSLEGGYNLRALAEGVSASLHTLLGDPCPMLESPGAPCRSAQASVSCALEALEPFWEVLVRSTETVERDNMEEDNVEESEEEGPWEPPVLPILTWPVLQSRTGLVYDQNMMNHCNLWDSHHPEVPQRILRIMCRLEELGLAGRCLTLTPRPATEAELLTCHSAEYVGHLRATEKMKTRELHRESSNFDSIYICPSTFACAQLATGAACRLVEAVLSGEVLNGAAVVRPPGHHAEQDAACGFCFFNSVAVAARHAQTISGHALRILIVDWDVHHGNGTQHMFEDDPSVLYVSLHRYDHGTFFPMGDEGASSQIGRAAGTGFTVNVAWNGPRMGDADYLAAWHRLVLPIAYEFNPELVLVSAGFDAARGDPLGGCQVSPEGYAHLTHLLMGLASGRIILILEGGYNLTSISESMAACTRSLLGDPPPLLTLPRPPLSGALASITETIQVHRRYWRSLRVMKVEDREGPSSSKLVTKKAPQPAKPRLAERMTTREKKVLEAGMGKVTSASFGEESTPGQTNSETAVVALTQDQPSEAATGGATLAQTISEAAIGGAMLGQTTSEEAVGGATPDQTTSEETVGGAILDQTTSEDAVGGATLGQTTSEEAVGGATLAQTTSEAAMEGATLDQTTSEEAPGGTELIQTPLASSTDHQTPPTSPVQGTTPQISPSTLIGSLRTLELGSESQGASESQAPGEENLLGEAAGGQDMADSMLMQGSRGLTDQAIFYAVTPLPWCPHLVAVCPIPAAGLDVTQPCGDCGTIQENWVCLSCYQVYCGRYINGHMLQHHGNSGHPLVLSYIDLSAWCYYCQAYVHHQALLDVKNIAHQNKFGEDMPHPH
Protocol: (§1) In order to confirm the selectivity of the compounds represented by Chemical Formula I of the present invention to HDAC6 through HDAC1 and HDAC6 enzyme activity inhibition experiments, a comparison experiment was performed using the material that has already been developed as a control group.
(§2) HDAC enzyme activity was measured using the HDAC Fluorimetric Drug Discovery Kit (Enzo Life Sciences, Inc., BML-AK511, 516). For the HDAC1 enzyme activity test, human recombinant HDAC1 (BML-SE456) was used as an enzyme source and Fluor de Lys®-SIRT1 (BNL-KI177) was used as a substrate. After dispensing 5-fold diluted compounds into a 96-well plate, 0.3 μg of enzyme and 10 μM substrate were added to each well of the plate and allowed to react at 30° C. for 60 minutes. Next, Fluor de Lys® Developer II (BML-KI176) was added and reacted for 30 minutes to complete the reaction, and then the fluorescence values (Ex 360, Em 460) were measured using a multi-plate reader (Flexstation 3, Molecular Device). The HDAC6 enzymes were tested using human recombinant HDAC6 (382180) from Calbiochem Inc., according to the same protocol as the HDAC1 enzyme activity test method. With respect to the final result values, respective IC50 values were calculated using GraphPad Prism 4.0 program, and results thereof were summarized in Table 5 below.

human recombinant HDAC1 = biological target: T2, human recombinant HDAC1 (Homo sapiens, UniProt Q13547); assay: In vitro HDAC enzyme activity inhibition assay, HDAC1 (HDAC Fluorimetric Drug Discovery Kit); type: biochemical; conditions: human recombinant HDAC1, Fluor de Lys-SIRT1 substrate 10 μM, 30° C. for 60 minutes
T2 construct: purchased Enzo Life Sciences, Inc. BML-SE456
T2 sequence (Q13547 whole entry): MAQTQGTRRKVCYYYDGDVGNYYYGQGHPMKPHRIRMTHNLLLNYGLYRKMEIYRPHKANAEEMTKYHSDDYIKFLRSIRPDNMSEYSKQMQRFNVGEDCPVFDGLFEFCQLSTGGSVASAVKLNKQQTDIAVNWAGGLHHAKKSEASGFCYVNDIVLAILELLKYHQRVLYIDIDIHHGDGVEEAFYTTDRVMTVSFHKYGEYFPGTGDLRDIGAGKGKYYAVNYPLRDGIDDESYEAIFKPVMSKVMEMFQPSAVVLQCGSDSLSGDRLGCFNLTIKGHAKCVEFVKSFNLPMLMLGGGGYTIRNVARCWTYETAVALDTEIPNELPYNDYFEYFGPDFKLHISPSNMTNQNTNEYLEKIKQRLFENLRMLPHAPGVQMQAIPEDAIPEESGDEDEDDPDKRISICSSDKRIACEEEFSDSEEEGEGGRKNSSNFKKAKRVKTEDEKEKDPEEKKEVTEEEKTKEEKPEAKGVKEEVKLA
Protocol: as §1, §2

Compound	HDAC6 Selectivity (fold) (human recombinant HDAC6)	IC50 (human recombinant HDAC6)	IC50 (human recombinant HDAC1)
FC(F)c1nnc(-c2ccn3cc(CNC4CCCCC4)nc3c2)o1 [Compound 3678, N-((7-(5-(difluoromethyl)-1,3,4-oxadiazol-2-yl)imidazo[1,2-a]pyridin-2-yl)methyl)cyclohexanamine]	170 fold	294 nM	> 50000 nM
Cc1cccc(NCc2cn3ccc(-c4nnc(C(F)F)o4)cc3n2)c1 [Compound 3679, N-((7-(5-(difluoromethyl)-1,3,4-oxadiazol-2-yl)imidazo[1,2-a]pyridin-2-yl)methyl)-3-methylaniline]	341 fold	147 nM	> 50000 nM
FC(F)c1nnc(-c2ccn3cc(COc4ccccc4)nc3c2)o1 [Compound 3719, 2-(difluoromethyl)-5-(2-(phenoxymethyl)imidazo[1,2-a]pyridin-7-yl)-1,3,4-oxadiazole]	237 fold	211 nM	> 50000 nM
Cc1cccc(OCc2cn3ccc(-c4nnc(C(F)F)o4)cc3n2)c1 [Compound 3720, 2-(difluoromethyl)-5-(2-((m-tolyloxy)methyl)imidazo[1,2-a]pyridin-7-yl)-1,3,4-oxadiazole]	121 fold	413 nM	> 50000 nM
CC(=O)c1cccc(OCc2cn3ccc(-c4nnc(C(F)F)o4)cc3n2)c1 [Compound 3721, 1-(3-((7-(5-(difluoromethyl)-1,3,4-oxadiazol-2-yl)imidazo[1,2-a]pyridin-2-yl)methoxy)phenyl)ethan-1-one]	123 fold	406 nM	> 50000 nM
Fc1cccc(OCc2cn3ccc(-c4nnc(C(F)F)o4)cc3n2)c1 [Compound 3722, 2-(difluoromethyl)-5-(2-((3-fluorophenoxy)methyl)imidazo[1,2-a]pyridin-7-yl)-1,3,4-oxadiazole]	174 fold	287 nM	> 50000 nM
Fc1ccc(OCc2cn3ccc(-c4nnc(C(F)F)o4)cc3n2)cc1F [Compound 3723, 2-(difluoromethyl)-5-(2-((3,4-difluorophenoxy)methyl)imidazo[1,2-a]pyridin-7-yl)-1,3,4-oxadiazole]	174 fold	240 nM	> 50000 nM
FC(F)c1nnc(-c2ccn3cc(COc4ccc(C(F)(F)F)cc4)nc3c2)o1 [Compound 3724, 2-(difluoromethyl)-5-(2-((4-(trifluoromethyl)phenoxy)methyl)imidazo[1,2-a]pyridin-7-yl)-1,3,4-oxadiazole]	56 fold	893 nM	> 50000 nM
CN(Cc1cn2ccc(-c3nnc(C(F)F)o3)cc2n1)c1ccccc1 [Compound 3725, N-((7-(5-(difluoromethyl)-1,3,4-oxadiazol-2-yl)imidazo[1,2-a]pyridin-2-yl)methyl)-N-methylaniline]	282 fold	177 nM	> 50000 nM
CN1CCC(C(=O)N(Cc2cn3ccc(-c4nnc(C(F)F)o4)cc3n2)c2ccccc2)CC1 [Compound 3782, N-((7-(5-(difluoromethyl)-1,3,4-oxadiazol-2-yl)imidazo[1,2-a]pyridin-2-yl)methyl)-1-methyl-N-phenylpiperidine-4-carboxamide]	740 fold	67.6 nM	> 50000 nM
O=C(C1CCN(C2COC2)CC1)N(Cc1cn2ccc(-c3nnc(C(F)F)o3)cc2n1)c1ccccc1 [Compound 3783, N-((7-(5-(difluoromethyl)-1,3,4-oxadiazol-2-yl)imidazo[1,2-a]pyridin-2-yl)methyl)-1-(oxetan-3-yl)-N-phenylpiperidine-4-carboxamide]	696 fold	71.8 nM	> 50000 nM
CN1CCN(C(=O)N(Cc2cn3ccc(-c4nnc(C(F)F)o4)cc3n2)c2ccccc2)CC1 [Compound 3784, N-((7-(5-(difluoromethyl)-1,3,4-oxadiazol-2-yl)imidazo[1,2-a]pyridin-2-yl)methyl)-4-methyl-N-phenylpiperazine-1-carboxamide]	727 fold	68.8 nM	> 50000 nM
O=C(N1CCN(C2COC2)CC1)N(Cc1cn2ccc(-c3nnc(C(F)F)o3)cc2n1)c1ccccc1 [Compound 3785]	437 fold	114 nM	> 50000 nM
CCN1CCN(C(=O)N(Cc2cn3ccc(-c4nnc(C(F)F)o4)cc3n2)c2ccccc2)CC1 [Compound 4033, N-((7-(5-(difluoromethyl)-1,3,4-oxadiazol-2-yl)imidazo[1,2-a]pyridin-2-yl)methyl)-4-ethyl-N-phenylpiperazine-1-carboxamide]	538 fold	93 nM	> 50000 nM
CC(C)N1CCN(C(=O)N(Cc2cn3ccc(-c4nnc(C(F)F)o4)cc3n2)c2ccccc2)CC1 [Compound 4034, N-((7-(5-(difluoromethyl)-1,3,4-oxadiazol-2-yl)imidazo[1,2-a]pyridin-2-yl)methyl)-4-isopropyl-N-phenylpiperazine-1-carboxamide]	485 fold	103 nM	> 50000 nM
CC(CO)N1CCN(C(=O)N(Cc2cn3ccc(-c4nnc(C(F)F)o4)cc3n2)c2ccccc2)CC1 (stereo not drawn) [Compound 4035, N-((7-(5-(difluoromethyl)-1,3,4-oxadiazol-2-yl)imidazo[1,2-a]pyridin-2-yl)methyl)-4-(1-hydroxypropan-2-yl)-N-phenylpiperazine-1-carboxamide]	168 fold	298 nM	> 50000 nM
O=C(N1CCN(C2CCC2)CC1)N(Cc1cn2ccc(-c3nnc(C(F)F)o3)cc2n1)c1ccccc1 [Compound 4036, 4-cyclobutyl-N-((7-(5-(difluoromethyl)-1,3,4-oxadiazol-2-yl)imidazo[1,2-a]pyridin-2-yl)methyl)-N-phenylpiperazine-1-carboxamide]	321 fold	156 nM	> 50000 nM
O=C(N1CCN(C2CCCCC2)CC1)N(Cc1cn2ccc(-c3nnc(C(F)F)o3)cc2n1)c1ccccc1 [Compound 4037, 4-cyclohexyl-N-((7-(5-(difluoromethyl)-1,3,4-oxadiazol-2-yl)imidazo[1,2-a]pyridin-2-yl)methyl)-N-phenylpiperazine-1-carboxamide]	404 fold	124 nM	> 50000 nM
O=C(N1CCN(C2CCOCC2)CC1)N(Cc1cn2ccc(-c3nnc(C(F)F)o3)cc2n1)c1ccccc1 [Compound 4038, N-((7-(5-(difluoromethyl)-1,3,4-oxadiazol-2-yl)imidazo[1,2-a]pyridin-2-yl)methyl)-N-phenyl-4-(tetrahydro-2H-pyran-4-yl)piperazine-1-carboxamide]	382 fold	131 nM	> 50000 nM
O=C(N1CCN(C2CCC(F)(F)CC2)CC1)N(Cc1cn2ccc(-c3nnc(C(F)F)o3)cc2n1)c1ccccc1 [Compound 4039, 4-(4,4-difluorocyclohexyl)-N-((7-(5-(difluoromethyl)-1,3,4-oxadiazol-2-yl)imidazo[1,2-a]pyridin-2-yl)methyl)-N-phenylpiperazine-1-carboxamide]	338 fold	148 nM	> 50000 nM
